Data taken from PubChem BioAssay (NCI).
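Compound exposure: 48 hours, 5 concentrations, 96-well plates. TGI: total growth inhibition.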

Assays:
Assay in all cases: NCI tumour cell line growth inhibition, 48 h
A549 NSCLC = tested on: A549 NSCLC
ACHN renal = tested on: ACHN renal
MALME-3M melanoma = tested on: MALME-3M melanoma
DLD-1 colon = tested on: DLD-1 colon
MOLT-4 leukemia = tested on: MOLT-4 leukemia
SW-620 colon = tested on: SW-620 colon
SNB-19 CNS = tested on: SNB-19 CNS
DMS 114 small cell lung = tested on: DMS 114 small cell lung
HL-60(TB) leukemia = tested on: HL-60(TB) leukemia
SNB-75 CNS = tested on: SNB-75 CNS
SF-268 CNS = tested on: SF-268 CNS
M19-MEL melanoma = tested on: M19-MEL melanoma
RXF-631 renal = tested on: RXF-631 renal
SR leukemia = tested on: SR leukemia
CAKI-1 renal = tested on: CAKI-1 renal
HCT-116 colon = tested on: HCT-116 colon
OVCAR-3 ovarian = tested on: OVCAR-3 ovarian
HOP-92 NSCLC = tested on: HOP-92 NSCLC
RPMI-8226 leukemia = tested on: RPMI-8226 leukemia
LXFL 529 NSCLC = tested on: LXFL 529 NSCLC
HOP-62 NSCLC = tested on: HOP-62 NSCLC
K-562 leukemia = tested on: K-562 leukemia
XF 498 CNS = tested on: XF 498 CNS
NCI-H522 lung = tested on: NCI-H522 lung
CCRF-CEM leukemia = tested on: CCRF-CEM leukemia
A498 renal = tested on: A498 renal
NCI-H226 lung = tested on: NCI-H226 lung
NCI-H460 lung = tested on: NCI-H460 lung
TK-10 renal = tested on: TK-10 renal
SK-MEL-5 melanoma = tested on: SK-MEL-5 melanoma
SK-MEL-28 melanoma = tested on: SK-MEL-28 melanoma
HT29 colon = tested on: HT29 colon
RXF 393 renal = tested on: RXF 393 renal
DMS 273 small cell lung = tested on: DMS 273 small cell lung
786-0 renal = tested on: 786-0 renal
COLO 205 colon = tested on: COLO 205 colon
SK-MEL-2 melanoma = tested on: SK-MEL-2 melanoma
OVCAR-4 ovarian = tested on: OVCAR-4 ovarian
U251 CNS = tested on: U251 CNS
SF-539 CNS = tested on: SF-539 CNS
LOX IMVI melanoma = tested on: LOX IMVI melanoma
OVCAR-5 ovarian = tested on: OVCAR-5 ovarian
KM20L2 colon = tested on: KM20L2 colon
HCC-2998 colon = tested on: HCC-2998 colon
UACC-62 melanoma = tested on: UACC-62 melanoma
EKVX NSCLC = tested on: EKVX NSCLC
M14 melanoma = tested on: M14 melanoma
SN12C renal = tested on: SN12C renal
UO-31 renal = tested on: UO-31 renal
IGROV1 ovarian = tested on: IGROV1 ovarian
SK-OV-3 ovarian = tested on: SK-OV-3 ovarian
SNB-78 CNS = tested on: SNB-78 CNS
UACC-257 melanoma = tested on: UACC-257 melanoma
NCI-H23 lung = tested on: NCI-H23 lung
SF-295 CNS = tested on: SF-295 CNS
HOP-18 NSCLC = tested on: HOP-18 NSCLC
OVCAR-8 ovarian = tested on: OVCAR-8 ovarian
KM12 colon = tested on: KM12 colon
SN12K1 renal = tested on: SN12K1 renal
MCF7 breast = tested on: MCF7 breast
P388 leukemia = tested on: P388 leukemia
P388/ADR leukemia = tested on: P388/ADR leukemia
HCT-15 colon = tested on: HCT-15 colon
NCI/ADR-RES ovarian = tested on: NCI/ADR-RES ovarian

## O=C1CC2CCCC23CC2(CCN13)OCCO2 (stereo not given)
A549 NSCLC
  TGI: > 100 µM
ACHN renal
  TGI: > 100 µM
MALME-3M melanoma
  TGI: > 100 µM
DLD-1 colon
  TGI: > 100 µM
MOLT-4 leukemia
  TGI: > 100 µM
SW-620 colon
  TGI: > 100 µM
SNB-19 CNS
  TGI: > 100 µM
DMS 114 small cell lung
  TGI: > 100 µM
HL-60(TB) leukemia
  TGI: > 100 µM
SNB-75 CNS
  TGI: > 100 µM
SF-268 CNS
  TGI: > 100 µM
M19-MEL melanoma
  TGI: > 100 µM
RXF-631 renal
  TGI: > 100 µM
SR leukemia
  TGI: > 100 µM
CAKI-1 renal
  TGI: > 100 µM
HCT-116 colon
  TGI: > 100 µM
OVCAR-3 ovarian
  TGI: > 100 µM
HOP-92 NSCLC
  TGI: > 100 µM
RPMI-8226 leukemia
  TGI: > 100 µM
LXFL 529 NSCLC
  TGI: > 100 µM
HOP-62 NSCLC
  TGI: > 100 µM
K-562 leukemia
  TGI: > 100 µM
XF 498 CNS
  TGI: > 100 µM
NCI-H522 lung
  TGI: > 100 µM
CCRF-CEM leukemia
  TGI: > 100 µM
A498 renal
  TGI: > 100 µM
NCI-H226 lung
  TGI: > 100 µM
NCI-H460 lung
  TGI: > 100 µM
TK-10 renal
  TGI: > 100 µM
SK-MEL-5 melanoma
  TGI: > 100 µM
SK-MEL-28 melanoma
  TGI: > 100 µM
HT29 colon
  TGI: > 100 µM
RXF 393 renal
  TGI: > 100 µM
DMS 273 small cell lung
  TGI: > 100 µM
786-0 renal
  TGI: > 100 µM
COLO 205 colon
  TGI: > 100 µM
SK-MEL-2 melanoma
  TGI: > 100 µM
OVCAR-4 ovarian
  TGI: > 100 µM
U251 CNS
  TGI: > 100 µM
SF-539 CNS
  TGI: > 100 µM
LOX IMVI melanoma
  TGI: > 100 µM
OVCAR-5 ovarian
  TGI: > 100 µM
KM20L2 colon
  TGI: > 100 µM
HCC-2998 colon
  TGI: > 100 µM
UACC-62 melanoma
  TGI: > 100 µM
EKVX NSCLC
  TGI: > 100 µM
M14 melanoma
  TGI: > 100 µM
SN12C renal
  TGI: > 100 µM
UO-31 renal
  TGI: > 100 µM
IGROV1 ovarian
  TGI: > 100 µM
SK-OV-3 ovarian
  TGI: > 100 µM
SNB-78 CNS
  TGI: > 100 µM
UACC-257 melanoma
  TGI: > 100 µM
NCI-H23 lung
  TGI: > 100 µM
SF-295 CNS
  TGI: > 100 µM
HOP-18 NSCLC
  TGI: > 100 µM
OVCAR-8 ovarian
  TGI: > 100 µM
KM12 colon
  TGI: > 100 µM

## O=NN(CCCl)C(=O)NC1CCC(O)CC1 (stereo not given)
A549 NSCLC
  TGI: > 100 µM
MALME-3M melanoma
  TGI: > 71.1 µM
DLD-1 colon
  TGI: > 77 µM
MOLT-4 leukemia
  TGI: 68.4 µM
SW-620 colon
  TGI: > 100 µM
SNB-19 CNS
  TGI: > 100 µM
DMS 114 small cell lung
  TGI: 51.5 µM
HL-60(TB) leukemia
  TGI: 41.9 µM
SNB-75 CNS
  TGI: > 79.7 µM
SF-268 CNS
  TGI: 43.3 µM
M19-MEL melanoma
  TGI: > 91 µM
SN12K1 renal
  TGI: > 100 µM
CAKI-1 renal
  TGI: > 89.6 µM
MCF7 breast
  TGI: > 100 µM
HCT-116 colon
  TGI: > 94.4 µM
OVCAR-3 ovarian
  TGI: > 89.8 µM
HOP-92 NSCLC
  TGI: 31.9 µM
RPMI-8226 leukemia
  TGI: 34.9 µM
HOP-62 NSCLC
  TGI: > 100 µM
K-562 leukemia
  TGI: > 77.6 µM
XF 498 CNS
  TGI: 60.3 µM
NCI-H522 lung
  TGI: 55.4 µM
CCRF-CEM leukemia
  TGI: 52.2 µM
A498 renal
  TGI: > 100 µM
NCI-H226 lung
  TGI: > 100 µM
P388 leukemia
  TGI: 20.5 µM
NCI-H460 lung
  TGI: > 100 µM
P388/ADR leukemia
  TGI: 18 µM
SK-MEL-5 melanoma
  TGI: > 100 µM
SK-MEL-28 melanoma
  TGI: 63.4 µM
HT29 colon
  TGI: > 100 µM
RXF 393 renal
  TGI: > 71.5 µM
DMS 273 small cell lung
  TGI: > 100 µM
HCT-15 colon
  TGI: 58.2 µM
COLO 205 colon
  TGI: > 72.9 µM
SK-MEL-2 melanoma
  TGI: > 100 µM
OVCAR-4 ovarian
  TGI: > 100 µM
NCI/ADR-RES ovarian
  TGI: 69.4 µM
U251 CNS
  TGI: > 100 µM
SF-539 CNS
  TGI: > 61 µM
LOX IMVI melanoma
  TGI: > 60.6 µM
OVCAR-5 ovarian
  TGI: > 100 µM
KM20L2 colon
  TGI: > 100 µM
HCC-2998 colon
  TGI: > 100 µM
UACC-62 melanoma
  TGI: 40.4 µM
EKVX NSCLC
  TGI: > 100 µM
SN12C renal
  TGI: > 100 µM
UO-31 renal
  TGI: > 100 µM
IGROV1 ovarian
  TGI: > 100 µM
SK-OV-3 ovarian
  TGI: > 100 µM
SNB-78 CNS
  TGI: 63.3 µM
UACC-257 melanoma
  TGI: > 85.2 µM
NCI-H23 lung
  TGI: > 100 µM
SF-295 CNS
  TGI: > 80.2 µM
HOP-18 NSCLC
  TGI: > 90.9 µM
OVCAR-8 ovarian
  TGI: > 100 µM
KM12 colon
  TGI: > 100 µM
